Laboratory results taken from US9605026B2, “Hydrogen-bond surrogate peptides and peptidomimetics for p53 reactivation” (New York University, priority 2013, dated 2017).

Tested on: p53-regulated genes (p21, miR-34a, miR-200c)
Assay: qPCR expression of p300, p53, p21, miR-34a, miR-200c in UMSCC47 cells
Type: cell-based, human
Details: UMSCC47, 10 μM, 24 hours, vs control
Source text: FIG. 5A is an schematic illustration showing that CH1 has two distinct target sites. HIF1-α/p300 structures were used as guides to design helix mimetics that target site A and site B on the CH1 domain of p300. […] CH1iA (SEQ ID NO: 7) and CH1iB (SEQ ID NO: 8) were designed to mimic two helices from the C-terminal domain of HIF-1α. The peptides were locked into the helical conformation by the hydrogen bond surrogate method. FIG. 5C is a graph of p53 activity. UMSCC47 (left) and UMSCC74A (right) cells were co-transfected with a p53 Firefly luciferase reporter plasmid and a control Renilla luciferase plasmid. After 24 hours, cells were treated with control (vehicle), CH1iA (10 μM), or CH1iB (10 μM) for 24 hours. Firefly luciferase activity was normalized to Renilla luciferase activity to control for transfection efficiency. Data is normalized to control and presented as mean±SEM. *P<0.05, n=3. […] UMSCC47 (top panel) and UMSCC74A (bottom panel) cells were treated with control (vehicle), CH1iA (10 μM), or CH1iB (10 μM) for 24 hours. mRNA expression was determined using qPCR with validated TaqMan assays. […]
FIG. 6A is a western blot showing total and acetylated p53 levels. […] UMSCC47 cells were treated with control (vehicle), CH1iB (10 μM), cis-platinum (10 μM), or CH1iB (10 μM) and cis-platinum (10 μM) for 24 hours. mRNA expression was determined using qPCR with validated TaqMan assays. […]

XELA*RALDQ-NH2 (ELXRALDQ; HBS: 4-pentenoic acid, N-allylalanine; C-terminal amide; CH1iB) [X 4-pentenoic acid, A* N-allylalanine]
p21, miR-34a, and miR-200c expression: modest but significant increase
